Reference: patent publication EP2433624B1, “Use of buparvaquone for controlling mites parasitising honeybees” (Bimeda International Pharmaceuticals Limited, priority 2010, dated 2012)
Values joined by “and” are separate entries in the source; they are usually repeats but may differ in a detail not shown here. Equal entries are not always repeated. Where two headings read alike, the source gives them in different places.

Experiments:
[1] = system: honeybees; assay: Bee survival in the test with BPQ B fed in sucrose solution; format: in vivo, Apis mellifera
Procedure: (§1) Example 6 - Toxicity of BPQ B to Varroa mites on honeybees when fed treated sucrose solution
(§2) A total of 20 newly emerged Varroa infested bees were placed in hoarding cages. The cages were prepared as described in Section 1.0, except that the air vents were reduced in size using parafilm to prevent the Varroa mites escaping during the test period. The mean(±se) number of mites per 20 bees was estimated prior to commencement of the experiment and an additional 5 mites per cage were added. (mean±se = 10.6±0.33). This was carried out by collecting adult female mite from drone pupae, placing them in an eppendorf tube and then releasing them into the cages.
(§3) The treatment solution was made by dissolving BPQ B in solvent, followed by two aqueous serial dilutions producing a concentration of 500µg/mL and 5 µg/mL. From the latter, further serial dilutions were carried with sucrose solution producing the following concentrations: • 0.5µg/mL. (C1-C3) • 0.05µg/mL. (D1-D3) • 0.005µg/mL. (E1-E3) • 0.0005µg/mL. (F1-F3) • 0.00005µg/mL (G1-G3)
Three replicates were established at each concentration plus a control group which were only fed sugar syrup. All cages were placed in the incubator at 32°C and monitored on a daily basis for the number of mites and number of bees knocked down. […]

[2] = system: Varroa mites; assay: Efficacy of BPQ B against Varroa mites on honeybees sprayed with an aqueous solution; format: in vivo; details: sprayed as an aqueous solution, preliminary
Procedure: (§4) Example 7 - Toxicity of BPQ B to Varroa mites on honeybees when sprayed with an aqueous solution of the active ingredient
To estimate the percentage efficacy of BPQ B at different concentrations when sprayed as an aqueous solution onto adult bees
(§5) A total of 20 newly emerged Varroa infested bees were placed in hoarding cages. The cages were prepared as described in Section 1.0, except that the air vents were reduced in size using parafilm to prevent the Varroa mites escaping during the test period. The mean(±se) number of mites per 20 bees was estimated prior to commencement and an additional 10 mites per cage were added. Mites were collected and introduced as described above. The treatment solution was made by dissolving BPQ B in solvent, followed by two aqueous serial dilutions producing a concentration of 500µg/mL and 5µg/mL. From the latter, further serial dilutions were carried in water producing the following concentrations: • 0.5µg/mL. (C1-C3) • 0.05µg/mL. (D1-D3) • 0.005µg/mL. (E1-E3) • 0.0005µg/mL. (F1-F3) • 0.00005µg/mL (G1-G3)
(§6) Three replicates were established at each concentration plus a control group which were sprayed with water only. All test groups were fed 10mL of 1:1 sucrose:water solution and placed in the incubator at 32°C and monitored on a daily basis for the number of mites and number of bees knocked down. At the end of five day treatment period, the percentage efficacy of the treatment was estimated by treating bees in all cages with Apistan. % efficacy = mites knocked from treatment/total mites (treatment+Apistan)*100 [formula]

[3] = system: honeybees; assay: Survival of bees sprayed with aqueous solutions of BPQ; format: in vivo, Apis mellifera; details: sprayed as an aqueous solution
Procedure: as §4, §5, §6

[4] = system: Varroa mites; assay: Efficacy of BPQ B against Varroa mites on honeybees fed treated sucrose solution; format: in vivo
Procedure: as §1
To estimate the percentage efficacy of BPQ at different concentrations in sucrose solution
as §2, §3
Three replicates were established at each concentration plus a control group which were only fed sugar syrup. All cages were placed in the incubator at 32°C and monitored on a daily basis for the number of mites and number of bees knocked down. At the end of five day treatment period, the percentage efficacy of the treatment was estimated by treating bees in all cages with Apistan (Trade Mark of Vita (Europe) Ltd. Apistan contains fluvalinate which is a synthetic pyrethroid. % efficacy = mites knocked from treatment/total mites (treatment+Apistan)*100 [formula]

[5] = Toxicity of BPQ B to honeybee larvae when fed treated syrup; format: in vivo, Apis mellifera; details: honeybee, in vivo, po, read-out: % Emergence
Excerpt: (§7) To measure the effect of treatment on developing larvae when fed syrup treated with BPQ powder, BPQ B, dissolved in the solvent (N-methyl pyrollidone) and diluted in an aqueous solution.
(§8) Apidae boxes were used to raise young queens and when virgin queens started to lay an area 6cm x 3cm were marked and missing cells were noted. The miniature colony was fed treated syrup, which was made by dissolving BPQ B powder in solvent, followed by serial dilutions using a sucrose solution (2 parts sugar: 1 part water). The concentrations administered are given below. Two replicates were carried out for the product, while 1 colony (apidae) was used for each of the solvent concentrations.

[6] = system: honeybee larvae; assay: as above; format: in vivo, Apis mellifera; details: for Sealed cells / Young bees emerged: 40 cells
Excerpt: as §7, §8

[7] = 0.00005µg/mL (g1-g3) in sucrose solution fed to 20 infested bees per cage
[8] = 0.00005µg/mL (g1) in sucrose fed to colony
[9] = 0.0005µg/mL (f1-f2) in sucrose fed to colony
[10] = 0.005µg/mL (e1-e2) in sucrose fed to colony
[11] = 0.05µg/mL (d1-d2) in sucrose fed to colony
[12] = 0.5µg/mL (c1-c2) in sucrose fed to colony

For `CC(C)(C)[C@H]1CC[C@H](CC2=C(O)C(=O)c3ccccc3C2=O)CC1` [BPQ B, buparvaquone], the bee survival ([1]; fed in a sucrose solution, day 5) was “no negative effects”, the toxicity for bees ([1]; powder dissolved in NMP, diluted in water then sugar solution, tested over 5 days, any concentration) was “No toxicity” and the mean minimum efficacy ([2]; treatment d (0.05µg/mL)) was 28.4%. For the same compound, the mean maximum efficacy ([2]; treatment g (0.00005µg/mL)) was 46.2%, the “percentage efficacy against the Varroa mite” value [2] was “low” and the toxicity to bees [3] was “very low”. The “daily Varroa mite drop down, Day 4” value [4, 7] was 0, the “daily Varroa mite drop down, Day 6” value [4, 7] was 0 and the “daily Varroa mite drop down, Day 2” value ([4]; 0.0005µg/mL (f1-f3) in sucrose solution fed to 20 infested bees per cage) was 7 and 9. For the same compound, the “effective in Varroa knockdown” value ([4]; 0.0005µg/mL, fed in sugar solution) was over 80%, the “daily Varroa mite drop down, Day 5” value ([4]; 0.05µg/mL (d1-d3) in sucrose solution fed to 20 infested bees per cage) was 1 and the “daily Varroa mite drop down, Day 6” value ([4]; 0.5µg/mL (c1-c3) in sucrose solution fed to 20 infested bees per cage) was 1 and 2. The maximum efficacy ([4]; fed in a sucrose solution, treatment f (0.0005µg/mL), 5 day treatment) was “approximately 82%”, the minimum efficacy ([4]; fed in a sucrose solution, treatment g (0.00005µg/mL), 5 day treatment) was 43.8% and the survival [5, 8] was 96.8%. For the same compound, the survival [5, 9] was 70.3%, the survival [5, 10] was 82.4% and the survival [5, 11] was 81.8%. For the same compound, the survival [5, 12] was 85.7%, the Sealed cells [6, 8] was 30 and the Young bees emerged [6, 8] was 30. For the same compound, the “% Emergence” value [6, 9] was 87.5%, the Sealed cells [6, 9] was 32 and 30 and the Young bees emerged [6, 9] was 26 and 28. The “% Emergence” value [6, 10] was 86.5%, the Sealed cells [6, 10] was 31 and 37 and the Young bees emerged [6, 10] was 28 and 32. The “% Emergence” value [6, 11] was 69.7%, the Sealed cells [6, 11] was 30 and 29 and the Young bees emerged [6, 11] was 27 and 23. For the same compound, the “% Emergence” value [6, 12] was 93.9%, the Sealed cells [6, 12] was 32 and 33 and the Young bees emerged [6, 12] was 30 and 31. For the same compound, the “toxicity for bee larvae” value ([6]; powder dissolved in NMP, diluted in water then sugar solution, any concentration) was “No toxicity”.
